Test results as given in PubChem BioAssay (NCI).
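Protocol summary: plate cells (96-well), add compound at 5 concentrations, incubate 48 h, interpolate endpoints linearly. The concentration for 50% growth inhibition is given as GI50. Definition used: TGI = concentration required for complete inhibition of growth.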

Tests used:
Test in all cases: NCI-60 cell line screen, 48 h
[1] = system: EKVX NSCLC
[2] = system: SK-MEL-5 melanoma
[3] = system: MALME-3M melanoma
[4] = system: U251 CNS
[5] = system: OVCAR-3 ovarian
[6] = system: HCC-2998 colon
[7] = system: HT29 colon
[8] = system: TK-10 renal
[9] = system: M14 melanoma
[10] = system: DU-145 prostate

SMILES | TGI [1] [µM] | TGI [2] [µM] | TGI [3] [µM] | TGI [4] [µM] | TGI [5] [µM] | TGI [6] [µM] | TGI [7] [µM] | TGI [8] [µM] | TGI [9] [µM] | TGI [10] [µM] | GI50 [9] [µM] | GI50 [10] [µM] | GI50 [2] [µM] | GI50 [3] [µM] | GI50 [5] [µM] | GI50 [7] [µM] | GI50 [6] [µM] | GI50 [8] [µM] | GI50 [1] [µM]
Nc1cc(S(=O)(=O)O)cc2cc(S(=O)(=O)O)c(N=Nc3ccc(-c4ccc(N=Nc5c(S(=O)(=O)O)cc6cc(S(=O)(=O)O)cc(N)c6c5O)cc4)cc3)c(O)c12 | > 100 | > 100 | > 100 | > 100 | > 100 | > 100 | > 100 |  |  |  |  |  |  |  |  |  |  |  | 
OC(Cc1ccccc1)(Cc1ccccc1)c1ccccc1 | 38 | 32.5 | 27.1 | 32.8 | 32.8 |  | 34.9 | 42.6 | 33.3 | 32.3 |  |  |  |  |  |  |  |  | 
C=C(C)C(=O)OC1C(C(C)CCCO)=C(CO)CC2OC(=O)C(=C)C21 (configuration not stated) | 87.2 | 28.5 | 17.8 | 45.3 | 54.5 | 31.8 | 45.9 | > 100 | 33.8 | 27.8 |  |  |  |  |  |  |  |  | 
C=C1C(=O)OC2/C=C(\C)C(=O)CC3OC(C)(C)OC3(C)CC(OC(=O)/C(C)=C/C)C12 (configuration not stated) | 34.2 | > 91.2 | 28 | > 75.2 | > 56.5 | 34.9 | 37.2 | 27.9 | > 70.3 | 45.1 |  |  |  |  |  |  |  |  | 
O=[N+]([O-])c1ccc(/C=N\Nc2ccc([N+](=O)[O-])cn2)cc1 | > 100 | > 100 | > 100 | > 100 | > 100 | > 100 | > 100 | > 100 | > 100 | > 100 |  |  |  |  |  |  |  |  | 
N=C(N)c1ccc(-c2ccc(-c3cncc4ccccc34)s2)cc1F |  | 3.26 | 3.51 |  | 3.24 |  | 4.48 |  | 3.4 | 3.45 | 1.8 | 1.86 | 1.75 | 1.74 | 1.73 | 1.68 |  |  | 
C=C(CN(C)C)C(=O)c1ccc(C)cc1C | 40 | 28.8 | 20.2 | 47.8 | 21.3 | 31.5 | 36.6 | 22.2 | 14.5 | 33.5 |  |  |  |  |  |  |  |  | 
O=S(=O)(O)c1cc(N=Nc2cc(S(=O)(=O)O)c3ccccc3c2O)ccc1/C=C/c1ccc(N=Nc2cc(S(=O)(=O)O)c3ccccc3c2O)cc1S(=O)(=O)O | > 632 | 239 | > 494 | > 1000 | > 1000 | > 1000 | > 740 | 220 | > 355 | 712 |  |  |  |  |  |  | > 1000 |  | 
C=C(C)[C@@H]1CC[C@]2(C(=O)Nc3ccccn3)CC[C@]3(C)[C@H](CC[C@@H]4[C@@]5(C)CCCNC(C)(C)[C@@H]5CC[C@]43C)[C@@H]12 | 2.53 |  | 2.84 |  | 2.92 |  |  | 5.45 |  | 3.42 |  | 1.81 |  | 1.44 | 1.54 |  |  | 2.26 | 1.06
C=C(C)C1CC2=C(O1)C(=O)c1ccccc1C2=O (configuration not stated) | 60.3 | 28.1 |  | 30.2 | 34.4 | 39.3 | 38.4 | 46.3 | 33.1 |  |  |  |  |  |  |  |  |  | 
